Experimental findings from patent US9221838B2, “Inhibitors of AKT activity” (ALMAC DISCOVERY LIMITED, priority 2009, dated 2015) are described below.

The structures appear in SMILES notation.

What all share (type): biochemical
For experiment [1], the target named is T1, AKT1 (Homo sapiens, UniProt P31749).
T1 construct: purchased SignalChem
Briefly: AKT Kinase Assay (IMAP fluorescent polarisation) vs AKT1. A digest of the protocol: (§1)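 Phosphorylation of FAM-Crosstide detected by IMAP binding and fluorescence polarisation (485/528 nm), with IC50 fitted from % inhibition versus vehicle. Compound was incubated 45 min with enzyme, then reacted 1 h at room temperature with ATP and peptide in Tris/MgCl2/DTT buffer. Dose response had fourteen half-log points.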

Experiment [2] concerns the target T2, AKT2 (Homo sapiens, UniProt P31751).
T2 construct: purchased SignalChem
Put plainly: AKT Kinase Assay (IMAP fluorescent polarisation) vs AKT2. A digest of the protocol:
as §1

The target in experiment [3] is T3, AKT3 (Homo sapiens, UniProt Q9Y243).
T3 construct: purchased SignalChem
Briefly: AKT Kinase Assay (IMAP fluorescent polarisation) vs AKT3. In outline:
as §1

T3 sequence (Q9Y243 whole entry): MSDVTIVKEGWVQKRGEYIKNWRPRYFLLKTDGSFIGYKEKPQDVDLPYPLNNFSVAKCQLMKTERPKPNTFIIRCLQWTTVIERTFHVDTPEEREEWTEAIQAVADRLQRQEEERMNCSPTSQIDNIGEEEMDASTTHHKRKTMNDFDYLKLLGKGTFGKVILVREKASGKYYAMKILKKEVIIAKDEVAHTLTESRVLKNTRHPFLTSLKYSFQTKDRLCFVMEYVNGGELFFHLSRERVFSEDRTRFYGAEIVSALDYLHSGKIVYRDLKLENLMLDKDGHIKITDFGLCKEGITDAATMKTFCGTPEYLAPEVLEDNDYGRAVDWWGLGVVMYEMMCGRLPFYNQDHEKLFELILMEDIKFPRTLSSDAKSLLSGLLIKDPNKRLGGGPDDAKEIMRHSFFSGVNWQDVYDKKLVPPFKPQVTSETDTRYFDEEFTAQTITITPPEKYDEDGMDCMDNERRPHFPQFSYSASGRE
T1 sequence (P31749 whole entry): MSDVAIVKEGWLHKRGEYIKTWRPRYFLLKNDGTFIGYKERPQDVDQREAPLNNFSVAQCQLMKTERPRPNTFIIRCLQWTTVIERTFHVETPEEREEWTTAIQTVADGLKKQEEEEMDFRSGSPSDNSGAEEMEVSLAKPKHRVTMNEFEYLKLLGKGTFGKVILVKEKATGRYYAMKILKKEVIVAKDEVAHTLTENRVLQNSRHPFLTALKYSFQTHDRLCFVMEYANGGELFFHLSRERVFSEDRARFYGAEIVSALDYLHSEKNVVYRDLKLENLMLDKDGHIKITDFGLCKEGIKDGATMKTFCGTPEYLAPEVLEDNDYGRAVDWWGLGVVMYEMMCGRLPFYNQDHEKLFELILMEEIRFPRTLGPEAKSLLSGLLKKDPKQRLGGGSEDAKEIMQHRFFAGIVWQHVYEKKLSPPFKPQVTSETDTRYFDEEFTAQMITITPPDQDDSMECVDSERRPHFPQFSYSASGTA
T2 sequence (P31751 whole entry): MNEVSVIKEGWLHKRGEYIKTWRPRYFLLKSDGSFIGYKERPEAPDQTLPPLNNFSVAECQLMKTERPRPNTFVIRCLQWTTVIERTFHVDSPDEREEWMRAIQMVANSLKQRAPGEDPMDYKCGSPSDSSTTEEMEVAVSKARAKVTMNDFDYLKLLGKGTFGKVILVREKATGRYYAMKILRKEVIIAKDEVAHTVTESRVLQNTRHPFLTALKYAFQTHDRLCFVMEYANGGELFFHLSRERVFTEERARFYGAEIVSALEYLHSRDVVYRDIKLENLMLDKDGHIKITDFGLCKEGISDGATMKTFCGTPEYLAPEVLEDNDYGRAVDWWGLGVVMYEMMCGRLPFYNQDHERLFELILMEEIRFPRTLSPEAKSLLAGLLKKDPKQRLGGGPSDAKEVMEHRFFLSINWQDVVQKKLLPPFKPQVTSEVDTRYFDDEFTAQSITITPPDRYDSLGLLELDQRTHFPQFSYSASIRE

What is called IC50 is the concentration that gives 50% inhibition. As to `NC1(c2ccc(-c3nc4c(cc3-c3ccccc3)-n3c(CO)nnc3CO4)cc2)CCC1` [Example 107], the half-inhibitory concentration (IC50) in experiment [1] is at most 0.1 µM; in experiment [2], 1 to 10 µM; in experiment [3], 1 to 10 µM.

As to `N#CCCCN1C(=O)COc2nc(-c3ccc(C4(N)CCC4)cc3)c(-c3ccccc3)cc21` [Example 64, 4-(6-(4-(1-aminocyclobutyl)phenyl)-2-oxo-7-phenyl-2,3-dihydro-1H-pyrido[2,3-b][1,4]oxazin-1-yl)butanenitrile], the IC50 lay in the range of 0.1 to 1 µM in experiment [1], 0.1 to 1 µM in experiment [2] and 1 to 10 µM in experiment [3].

As to `CC1Oc2nc(-c3ccc(C4(N)CCC4)cc3)c(-c3ccccc3)cc2N(CC#N)C1=O` (stereo not drawn) [Example 81, 2-(6-(4-(1-aminocyclobutyl)phenyl)-3-methyl-2-oxo-7-phenyl-2,3-dihydro-1H-pyrido[2,3-b][1,4]oxazin-1-yl)acetonitrile], the concentration for half-maximal inhibition (IC50) was at most 0.1 µM in experiment [1], 0.1 to 1 µM in experiment [2] and 1 to 10 µM in experiment [3].

With `CC(=O)N1CCOc2nc(-c3ccc(C4(N)CCC4)cc3)c(-c3ccccc3)cc21` [Example 41, 1-(6-(4-(1-aminocyclobutyl)phenyl)-7-phenyl-2,3-dihydro-1H-pyrido[2,3-b][1,4]oxazin-1-yl)ethanone], the results for the concentration for half-maximal inhibition (IC50) in experiment [1], in experiment [2] and in experiment [3] were 1 to 10 µM, 0.1 to 1 µM and above 10 µM, respectively.

For the compound `NC1(c2ccc(-c3nc4c(cc3-c3ccccc3)-n3c(nnc3-c3cccnc3)CO4)cc2)CCC1` [Example 122, 1-(4-(8-phenyl-1-(pyridin-3-yl)-4H-pyrido[2,3-b][1,2,4]triazolo[4,3-d][1,4]oxazin-7-yl)phenyl)cyclobutanamine], the half-maximal inhibitory concentration (IC50) in experiment [1] lay in the range of 0.1 to 1 µM; in experiment [2] it was 1 to 10 µM; in experiment [3] it was 1 to 10 µM.

In the case of `CNc1[nH]nc2c1CCc1nc(-c3ccc(C4(N)CCC4)cc3)c(-c3ccccc3)cc1-2` [Example 11, 7-(4-(1-aminocyclobutyl)phenyl)-N-methyl-8-phenyl-4,5-dihydro-2H-pyrazolo[3,4-f]quinolin-3-amine], the values for the 50% inhibitory concentration (IC50) in experiment [1], in experiment [2] and in experiment [3] were 0.1 to 1 µM, 0.1 to 1 µM and above 10 µM, respectively.

Turning to `CO/N=C1\CCCc2nc(-c3ccc(C4(N)CCC4)cc3)c(-c3ccccc3)cc21` [Example 3, 2-(4-(1-aminocyclobutyl)phenyl)-3-phenyl-7,8-dihydroquinolin-5(6H)-one O-methyl oxime], the values for the half-inhibitory concentration (IC50) in experiment [1], in experiment [2] and in experiment [3] were 1 to 10 µM, above 10 µM and above 10 µM, respectively.

`Cn1cnc(-c2nnc3n2CCc2nc(-c4ccc(C5(N)CCC5)cc4)c(-c4ccccc4)cc2-3)c1` [Example 29, 1-(4-(3-(1-methyl-1H-imidazol-4-yl)-9-phenyl-5,6-dihydro-[1,2,4]triazolo[3,4-f][1,6]naphthyridin-8-yl)phenyl)cyclobutanamine]: the concentration for half-maximal inhibition (IC50) was at most 0.1 µM in experiment [1], 0.1 to 1 µM in experiment [2] and above 10 µM in experiment [3].

As for `CCc1nnc2n1-c1cc(-c3ccccc3)c(-c3ccc(C4(N)CCC4)cc3)nc1OC2` [Example 47, 1-(4-(1-ethyl-8-phenyl-4H-pyrido[2,3-b][1,2,4]triazolo[4,3-d][1,4]oxazin-7-yl)phenyl)cyclobutanamine], the values for the IC50 in experiment [1], in experiment [2] and in experiment [3] were at most 0.1 µM, 0.1 to 1 µM and 1 to 10 µM, respectively.

As to `CC12CCc3nc(-c4ccc(C5(N)CCC5)cc4)c(-c4ccccc4)cc3C1=NNC2=O` (stereo not drawn) [Example 8, 7-(4-(1-aminocyclobutyl)phenyl)-3a-methyl-8-phenyl-4,5-dihydro-2H-pyrazolo[3,4-f]quinolin-3(3aH)-one], the half-maximal inhibitory concentration (IC50) in experiment [1] is 0.1 to 1 µM; in experiment [2], 0.1 to 1 µM; in experiment [3] it was above 10 µM.

With `CCOC(=O)CN1C(=O)COc2nc(-c3ccc(C4(N)CCC4)cc3)c(-c3ccccc3)cc21` [Example 49, ethyl 2-(6-(4-(1-aminocyclobutyl)phenyl)-2-oxo-7-phenyl-2,3-dihydro-1H-pyrido[2,3-b][1,4]oxazin-1-yl)acetate], the concentration for half-maximal inhibition (IC50) in experiment [1], in experiment [2] and in experiment [3] was 0.1 to 1 µM throughout.

For the compound `NC1(c2ccc(-c3nc4c(cc3-c3ccccc3)-n3c(n[nH]c3=O)CO4)cc2)CCC1` [Example 38, 7-(4-(1-aminocyclobutyl)phenyl)-8-phenyl-2,4-dihydro-1H-pyrido[2,3-b][1,2,4]triazolo[4,3-d][1,4]oxazin-1-one], the IC50 was 0.1 to 1 µM in experiment [1], 0.1 to 1 µM in experiment [2] and 1 to 10 µM in experiment [3].

With `CN1C(=O)COc2nc(-c3ccc(C4(N)CC4)cc3)c(-c3ccccc3)cc21` [Example 149, 6-(4-(1-aminocyclopropyl)phenyl)-1-methyl-7-phenyl-1H-pyrido[2,3-b][1,4]oxazin-2(3H)-one], the IC50 in experiment [1] was 0.1 to 1 µM; in experiment [2] it was 1 to 10 µM; in experiment [3], above 10 µM.

Turning to `NC1(c2ccc(-c3nc4c(cc3-c3ccccc3)N(Cc3ccncc3)C(=O)CO4)cc2)CCC1` [Example 45, 6-(4-(1-aminocyclobutyl)phenyl)-7-phenyl-1-(pyridin-4-ylmethyl)-1H-pyrido[2,3-b][1,4]oxazin-2(3H)-one], the concentration for half-maximal inhibition (IC50) lay within 1 to 10 µM in experiment [1], 0.1 to 1 µM in experiment [2] and 1 to 10 µM in experiment [3].

As for `Cc1nc2c(n1O)CCc1nc(-c3ccc(C4(N)CCC4)cc3)c(-c3ccccc3)cc1-2` [Example 14, 7-(4-(1-aminocyclobutyl)phenyl)-2-methyl-8-phenyl-4,5-dihydro-3H-imidazo[4,5-f]quinolin-3-ol], the IC50 in experiment [1] was in the range of 0.1 to 1 µM; in experiment [2], 1 to 10 µM; in experiment [3], 1 to 10 µM.

On to `CN1C(=O)NCc2nc(-c3ccc(C4(N)CCC4)cc3)c(-c3ccccc3)cc21` [Example 108, 6-(4-(1-aminocyclobutyl)phenyl)-1-methyl-7-phenyl-3,4-dihydropyrido[3,2-d]pyrimidin-2(1H)-one], for which the half-inhibitory concentration (IC50) in experiment [1] lay within 0.1 to 1 µM; in experiment [2], 0.1 to 1 µM; in experiment [3], 1 to 10 µM.

For the compound `Nc1ncc2c(n1)-c1cc(-c3ccccc3)c(-c3ccc(C4(N)CCC4)cc3)nc1CC2` [Example 17], the IC50 lay in the range of 0.1 to 1 µM in experiment [1], 1 to 10 µM in experiment [2] and 1 to 10 µM in experiment [3].

For `N[C@]1(c2ccc(-c3nc4c(cc3-c3ccccc3)N(CC3CC3)C(=O)CO4)cc2)C[C@H](O)C1` [Example 140, 6-(4-((1s,3s)-1-amino-3-hydroxycyclobutyl)phenyl)-1-(cyclopropylmethyl)-7-phenyl-1H-pyrido[2,3-b][1,4]oxazin-2(3H)-one], the half-inhibitory concentration (IC50) in experiment [1] lay within 0.1 to 1 µM; in experiment [2] it was 0.1 to 1 µM; in experiment [3], 1 to 10 µM.

For the compound `NC1(c2ccc(-c3nc4c(cc3-c3ccccc3)-c3n[nH]c(N5CCOCC5)c3CC4)cc2)CCC1` [Example 13, 1-(4-(3-morpholino-8-phenyl-4,5-dihydro-2H-pyrazolo[3,4-f]quinolin-7-yl)phenyl)cyclobutanamine], the values for the IC50 in experiment [1], in experiment [2] and in experiment [3] were 0.1 to 1 µM, 0.1 to 1 µM and 1 to 10 µM, respectively.

Turning to `CN1CCC(=O)N(C)c2cc(-c3ccccc3)c(-c3ccc(C4(N)CCC4)cc3)nc21` [Example 111, 7-(4-(1-aminocyclobutyl)phenyl)-1,5-dimethyl-8-phenyl-4,5-dihydro-1H-pyrido[2,3-b][1,4]diazepin-2(3H)-one], the figures for the IC50 in experiment [1], in experiment [2] and in experiment [3] were 1 to 10 µM, 1 to 10 µM and above 10 µM, respectively.

Turning to `CCCN1C(=O)COc2nc(-c3ccc(C4(N)CCC4)cc3)c(-c3ccccc3)cc21` [Example 105, 6-(4-(1-aminocyclobutyl)phenyl)-7-phenyl-1-propyl-1H-pyrido[2,3-b][1,4]oxazin-2(3H)-one], the half-inhibitory concentration (IC50) was at most 0.1 µM in experiment [1], at most 0.1 µM in experiment [2] and 1 to 10 µM in experiment [3].

As to `C[C@]1(O)C[C@@](N)(c2ccc(-c3nc4c(cc3-c3ccccc3)N(CC3CC3)C(=O)CO4)cc2)C1` [Example 144, 6-(4-((1r,3r)-1-amino-3-hydroxy-3-methylcyclobutyl)phenyl)-1-(cyclopropylmethyl)-7-phenyl-1H-pyrido[2,3-b][1,4]oxazin-2(3H)-one], the IC50 in experiment [1] is 0.1 to 1 µM; in experiment [2] it was at most 0.1 µM; in experiment [3], 0.1 to 1 µM.

Take `C[C@]1(O)C[C@@](N)(c2ccc(-c3nc4c(cc3-c3ccccc3)N(CCF)C(=O)CO4)cc2)C1` [Example 145, 6-(4-((1r,3r)-1-amino-3-hydroxy-3-methylcyclobutyl)phenyl)-1-(2-fluoroethyl)-7-phenyl-1H-pyrido[2,3-b][1,4]oxazin-2(3H)-one]: the IC50 in experiment [1] was at most 0.1 µM; in experiment [2], at most 0.1 µM; in experiment [3] it was 0.1 to 1 µM.

`COCC1Oc2nc(-c3ccc(C4(N)CCC4)cc3)c(-c3ccccc3)cc2N(CC#N)C1=O` (stereo not drawn) [Example 95, 2-(6-(4-(1-aminocyclobutyl)phenyl)-3-(methoxymethyl)-2-oxo-7-phenyl-2,3-dihydro-1H-pyrido[2,3-b][1,4]oxazin-1-yl)acetonitrile]: the results for the half-maximal inhibitory concentration (IC50) in experiment [1], in experiment [2] and in experiment [3] were 0.1 to 1 µM, 0.1 to 1 µM and above 10 µM, respectively.

`NC1(c2ccc(-c3nc4c(cc3-c3ccccc3)C(=O)CCCC4)cc2)CCC1` [Example 20, 2-(4-(1-aminocyclobutyl)phenyl)-3-phenyl-6,7,8,9-tetrahydro-5H-cyclohepta[b]pyridin-5-one]: the 50% inhibitory concentration (IC50) was 0.1 to 1 µM in experiment [1], 1 to 10 µM in experiment [2] and above 10 µM in experiment [3].

As to `N#CCN1c2cc(-c3ccccc3)c(-c3ccc(C4(N)CCC4)cc3)nc2OCS1(=O)=O` [Example 76, 2-(6-(4-(1-aminocyclobutyl)phenyl)-2,2-dioxido-7-phenyl-1H-pyrido[3,2-e][1,3,4]oxathiazin-1-yl)acetonitrile], the concentration for half-maximal inhibition (IC50) in experiment [1] was 0.1 to 1 µM; in experiment [2] it was at most 0.1 µM; in experiment [3], above 10 µM.

Turning to `CC1Oc2nc(-c3ccc(C4(N)CCC4)cc3)c(-c3ccccc3)cc2N(C)C1=O` (stereo not drawn) [Example 84, 6-(4-(1-aminocyclobutyl)phenyl)-1,3-dimethyl-7-phenyl-1H-pyrido[2,3-b][1,4]oxazin-2(3H)-one], the IC50 in experiment [1] was in the range of 0.1 to 1 µM; in experiment [2] it was 1 to 10 µM; in experiment [3] it was 1 to 10 µM.
